Some test systems named below: SR leukemia; SNB-75 CNS; SW-620 colon; K-562 leukemia; SF-295 CNS; OVCAR-4 ovarian; SK-MEL-2 melanoma; IGROV1 ovarian; MDA-N; NCI-H522 lung; BT-549 breast; MDA-MB-231 breast; A498 renal; 786-0 renal; HT29 colon; SN12C renal.
Assay in all cases: DTP human tumour cell line panel, 48 h

Here are results for 6 compounds from PubChem BioAssay (NCI).

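In this assay, cells in 96-well plates receive the compound at five concentrations for 48 hours. Endpoints are linearly interpolated between the surrounding concentrations. Abbreviation: GI50, concentration required for 50% inhibition of growth. TGI: concentration producing complete growth inhibition.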

On to `COc1cccc(/C=C2\CCCCCC2=O)c1`, for which the TGI in the test with SR leukemia, with SNB-75 CNS, with SW-620 colon, in the test with K-562 leukemia, with SF-295 CNS and in the test with OVCAR-4 ovarian was greater than 100 µM each time. In addition, the TGI with SK-MEL-2 melanoma, in the test on IGROV1 ovarian, with MDA-N, with NCI-H522 lung, in the test with BT-549 breast and in the test with MDA-MB-231 breast was greater than 100 µM throughout. Also, the total growth inhibition concentration (TGI) in the test with A498 renal, in the test with 786-0 renal, in the test with HT29 colon and in the test with SN12C renal was greater than 100 µM in each case.
Consider `CC(=O)Oc1cc2c(cc1OC(C)=O)[C@H]1CC[C@]3(C)[C@@H](OC(C)=O)CC[C@H]3[C@@H]1CC2`, for which the TGI (usually the concentration giving total growth inhibition) in the test on SR leukemia came out at 5.77 µM; with SNB-75 CNS, 4.42 µM; with SW-620 colon, 15.4 µM; in the test on K-562 leukemia, 16.8 µM; in the test with SF-295 CNS it was 24.3 µM; in the test on OVCAR-4 ovarian, 19.7 µM. The total growth inhibition concentration (TGI) turned out to be 16.1 µM in the test on SK-MEL-2 melanoma; 19.1 µM in the test on IGROV1 ovarian; 16.5 µM in the test on MDA-N; 3.85 µM in the test with NCI-H522 lung; 11.2 µM with BT-549 breast; 26.3 µM with MDA-MB-231 breast. The TGI in the test on A498 renal turned out to be 25.6 µM; with 786-0 renal it was 18.9 µM; in the test on HT29 colon, 19.3 µM; in the test on SN12C renal it was 20.4 µM. The GI50 – broadly, the concentration that inhibits growth by half – in the test on SN12C renal was 5.06 µM.
Turning to `Cc1cc(C)c2c(=O)n(CN3CCC(O)(c4ccccc4)CC3)sc2n1`, the concentration for total growth inhibition (TGI) in the test on SR leukemia is 82.8 µM; with SNB-75 CNS it was 50.8 µM; with SW-620 colon, 69.5 µM; with K-562 leukemia, greater than 100 µM; with SF-295 CNS, greater than 100 µM; with OVCAR-4 ovarian, 81.4 µM. Moreover, the TGI with SK-MEL-2 melanoma is greater than 100 µM; in the test on IGROV1 ovarian it was greater than 100 µM; in the test with MDA-N, 38.3 µM; in the test with NCI-H522 lung it was 24.2 µM; in the test with BT-549 breast, greater than 100 µM; in the test on MDA-MB-231 breast, greater than 100 µM. In addition, the TGI was greater than 100 µM in the test on A498 renal, 30.8 µM with 786-0 renal, 98.9 µM in the test with HT29 colon and 86.2 µM in the test with SN12C renal.
With `O=[N+]([O-])O.[Ga]`, the concentration for total growth inhibition (TGI) is greater than 10000 µM in the test with SR leukemia; greater than 7110 µM in the test on SNB-75 CNS; greater than 10000 µM in the test on SW-620 colon; greater than 8480 µM in the test on K-562 leukemia; 1240 µM in the test with SF-295 CNS; 5040 µM with OVCAR-4 ovarian. For the same compound, the TGI is 3270 µM with SK-MEL-2 melanoma; greater than 7220 µM with IGROV1 ovarian; greater than 10000 µM in the test on MDA-N; 4490 µM in the test with NCI-H522 lung; greater than 4640 µM in the test with BT-549 breast; greater than 10000 µM in the test with MDA-MB-231 breast. Further, the TGI was 2590 µM in the test with A498 renal, greater than 10000 µM in the test with 786-0 renal, greater than 7200 µM in the test on HT29 colon and 6890 µM with SN12C renal. In addition, the results for the GI50 in the test with SNB-75 CNS and with SK-MEL-2 melanoma were 1250 µM and 325 µM, respectively.
For the compound `CCOC(=O)c1[nH]c2ccccc2c1C(=O)C[C@H](NC(=O)C(F)(F)F)C(=O)OC`, the TGI in the test with SR leukemia, with SNB-75 CNS, in the test on SW-620 colon, in the test on K-562 leukemia, in the test on SF-295 CNS and with OVCAR-4 ovarian was greater than 100 µM throughout. In addition, the TGI with SK-MEL-2 melanoma, with IGROV1 ovarian, with MDA-N, in the test with NCI-H522 lung, with BT-549 breast and with MDA-MB-231 breast was greater than 100 µM throughout. The concentration for total growth inhibition (TGI) in the test on A498 renal, in the test with 786-0 renal, in the test on HT29 colon and in the test with SN12C renal was greater than 100 µM each time.
With `COC(=O)C1(Cc2ccccc2)Cc2ccc3c(c2C1=O)CCC3` (centres undefined), the TGI with SR leukemia was greater than 73.4 µM; in the test on SNB-75 CNS it was greater than 100 µM; with SW-620 colon, greater than 100 µM; in the test on K-562 leukemia, greater than 100 µM; in the test on SF-295 CNS it was greater than 100 µM; in the test on OVCAR-4 ovarian it was greater than 92.8 µM. Besides, the TGI in the test with SK-MEL-2 melanoma was 41.5 µM; with IGROV1 ovarian, greater than 100 µM; in the test with MDA-N, greater than 86.4 µM; in the test with NCI-H522 lung, 75.5 µM; in the test with BT-549 breast it was greater than 87.7 µM; in the test on MDA-MB-231 breast, greater than 100 µM. In addition, the TGI is greater than 89.8 µM with A498 renal, greater than 100 µM in the test on 786-0 renal, greater than 89.6 µM with HT29 colon and greater than 100 µM in the test on SN12C renal.
